We go through two molecules from patent US8168656B2, “Indoleacetic acid and indenacetic acid derivatives as therapeutic agents with reduced gastrointestinal toxicity” (Vanderbilt University, priority 2009, dated 2012).

The test system of one series is cultured cancer cells. Put plainly: Induction of apoptosis of cultured cancer cells. In kind it is cell-based, human. As for the experimental part: RKO, HCT-116 (another human colorectal cancer cell line), and H1299 (a human non-small cell cancer line) cells that had been treated with test compounds for various times were washed twice with ice-cold PBS and lysed in a lysis buffer (BioVision) on ice for 10 minutes, followed by centrifugation at 15,000×g for 10 minutes. Caspase-3 activity, which is a measure if the initiation of apoptotic cell death, was determined in the supernatant by a colorimeric assay kit (BioVision Inc., Palo Alto, Calif., United States of America) using the p-nitroanilide-labeled peptide, DEVD-pNA, as substrate. Caspase-3 activity was monitored by the release of p-nitroanilide from the substrate at 405 nm. The fold increase in caspase-3 activity is shown in FIG. 9, and was calculated by comparing the absorbance of p-nitroanilide from vehicle treated controls and those treated with sulindac sulfide and its analogs. […]

Another series relates to C57/BL6 mice. As to the kind of experiment: Toxicity in vivo, daily injections. As to conditions: daily injections of a series of concentrations.
Another series deals with PPARγ. As to the kind of experiment: PPARγ reporter assay in transfected HEK293 cells. In kind it is cell-based. As to conditions: transfected cells in culture. As for the experimental part: Human embryonic kidney cells (HEK293 cells) were purchased from American Type Culture Collection (ATCC) and maintained in Dulbecco's modified Eagle's medium (DMEM) with GIBCO™ GLUTAMAX™ (Invitrogen Corp., Carlsbad, Calif., United States of America) and 10% heat-inactivated FBS (Atlas Biological, Fort Collins, Colo., United States of America) or 10% charcoal-stripped FBS (HyClone, Logan, Utah, United States of America) in a 5% CO2 constant humidity 37° C. incubator. 9×10^5 HEK293 cells were plated in DMEM supplemented with 10% charcoal-stripped FBS. 18-24 hours after plating, cells were transfected with a control Renilla luciferase expressing plasmid (0.2 μg pCMV-renilla luciferase from Promega Corp., Madison, Wis., United States of America), 0.4 μg PPARγ-GAL4, and 0.4 μg UAS-tk-luc using a lipid ratio of 8 μL Effectene Transfection Reagent (Qiagen Inc., Valencia, Calif., United States of America) per 1 μg DNA in 3 mL of DMEM+10% charcoal-stripped FBS. Cells remained in the transfection mixture overnight until the transfection media was replaced with DMEM+10% charcoal-stripped serum containing ligands of interest or vehicle (0.1% DMSO) […]
In general terms: A reporter such as luciferase makes a cellular process visible.

With `COc1ccc2c(c1)c(CC(=O)O)cn2C(=O)c1ccc(Cl)cc1` [2-Des-methylindomethacin, [1-(4-Chloro-benzoyl)-5-methoxy-1H-indol-3-yl]-acetic acid], the “ability to induce apoptosis of cultured cancer cells, compared with parent drug” value in the series with cultured cancer cells is on record as “as active or more active than the parent drug”. For the same molecule, in the series on C57/BL6 mice, the “less toxic than indomethacin” value is “at least 25 fold”. Besides, the “ability to activate PPARγ-mediated transcription in transfected cells, compared with parent drug” value with PPARγ is “as active or more active than the parent drug”.

As for `CSc1ccc(C=C2C=C(CC(=O)O)c3cc(F)ccc32)cc1` [eindenic acid sulfide, [6-Fluoro-3-(4-methylsulfanyl-benzylidene)-3H-inden-1-yl]-acetic acid], in the series on cultured cancer cells, the “ability to induce apoptosis of cultured cancer cells, compared with parent drug” value is on record as “considerably more active than sulindac sulfide”. Further, the “ability to activate PPARγ-mediated transcription in transfected cells, compared with parent drug” value in the series on PPARγ is recorded as “considerably more active than sulindac sulfide”.
